Reference: the supplement of paper PMC13380429

Tests used:
Details in all cases: 72 h
Calu-3 [1] = experiment: cell viability relative to DMSO; higher = less toxic
U2OS [2] = experiment: as above
Caco-2 [3] = experiment: as above
HepG2 [4] = experiment: as above
Calu-3 [5] = experiment: drug sensitivity score (DSS) for viability; higher = more toxic; extreme values may be limits of the assay
U2OS [6] = experiment: as above
Caco-2 [7] = experiment: as above
HepG2 [8] = experiment: as above
Calu-3 [9] = experiment: relative viability EC50 (midpoint between 100% and the lowest measured viability); higher = less toxic
U2OS [10] = experiment: as above
Caco-2 [11] = experiment: as above
HepG2 [12] = experiment: as above
Vero E6 [13] = experiment: cell viability relative to DMSO; higher = less toxic
Vero E6 [14] = experiment: drug sensitivity score (DSS) for viability; higher = more toxic; extreme values may be limits of the assay

O=C(O)COc1ccc(/C=C2\SC(=O)NC2=O)cc1 [TCS-3035]
cell viability (Calu-3 [1]; 1 nM): 101%
cell viability (Calu-3 [1]; 10 nM): 97.6%
cell viability (Calu-3 [1]; 100 nM): 97.3%
cell viability (Calu-3 [1]; 1000 nM): 103%
cell viability (Calu-3 [1]; 10000 nM): 106%
cell viability (U2OS [2]; 1 nM): 102%
cell viability (U2OS [2]; 10 nM): 94.9%
cell viability (U2OS [2]; 100 nM): 97.8%
cell viability (U2OS [2]; 1000 nM): 99.8%
cell viability (U2OS [2]; 10000 nM): 100%
cell viability (Caco-2 [3]; 1 nM): 105%
cell viability (Caco-2 [3]; 10 nM): 107%
cell viability (Caco-2 [3]; 100 nM): 97.3%
cell viability (Caco-2 [3]; 1000 nM): 104%
cell viability (Caco-2 [3]; 10000 nM): 102%
cell viability (HepG2 [4]; 1 nM): 103%
cell viability (HepG2 [4]; 10 nM): 104%
cell viability (HepG2 [4]; 100 nM): 103%
cell viability (HepG2 [4]; 1000 nM): 105%
cell viability (HepG2 [4]; 10000 nM): 95.3%
drug sensitivity score (Calu-3 [5]): 0
drug sensitivity score (U2OS [6]): 0
drug sensitivity score (Caco-2 [7]): 0
drug sensitivity score (HepG2 [8]): 0
relative viability EC50 (Calu-3 [9]): > 10 µM
relative viability EC50 (U2OS [10]): > 10 µM
relative viability EC50 (Caco-2 [11]): > 10 µM
relative viability EC50 (HepG2 [12]): > 10 µM

NS(=O)(=O)c1ccc(NC(=O)Nc2ccc(F)cc2)cc1 [U-104]
cell viability (Calu-3 [1]; 1 nM): 112%
cell viability (Calu-3 [1]; 10 nM): 91.7%
cell viability (Calu-3 [1]; 100 nM): 107%
cell viability (Calu-3 [1]; 1000 nM): 101%
cell viability (Calu-3 [1]; 10000 nM): 108%
cell viability (Caco-2 [3]; 1 nM): 99.4%
cell viability (Caco-2 [3]; 10 nM): 94.4%
cell viability (Caco-2 [3]; 100 nM): 96.9%
cell viability (Caco-2 [3]; 1000 nM): 105%
cell viability (Caco-2 [3]; 10000 nM): 101%
cell viability (HepG2 [4]; 1 nM): 102%
cell viability (HepG2 [4]; 10 nM): 106%
cell viability (HepG2 [4]; 100 nM): 103%
cell viability (HepG2 [4]; 1000 nM): 89.8%
cell viability (HepG2 [4]; 10000 nM): 104%
drug sensitivity score (Calu-3 [5]): 0
drug sensitivity score (Caco-2 [7]): 0
drug sensitivity score (HepG2 [8]): 0
relative viability EC50 (Calu-3 [9]): > 10 µM
relative viability EC50 (Caco-2 [11]): > 10 µM
relative viability EC50 (HepG2 [12]): > 10 µM

CC(=O)N[C@@H](CC(C)C)C(=O)O [acetyl-l-leucine]
cell viability (U2OS [2]; 1 nM): 101%
cell viability (U2OS [2]; 10 nM): 99.9%
cell viability (U2OS [2]; 100 nM): 95.2%
cell viability (U2OS [2]; 1000 nM): 101%
cell viability (U2OS [2]; 10000 nM): 96.2%
cell viability (Caco-2 [3]; 1 nM): 95.7%
cell viability (Caco-2 [3]; 10 nM): 103%
cell viability (Caco-2 [3]; 100 nM): 85%
cell viability (Caco-2 [3]; 1000 nM): 80.3%
cell viability (Caco-2 [3]; 10000 nM): 96.6%
cell viability (HepG2 [4]; 1 nM): 95.8%
cell viability (HepG2 [4]; 10 nM): 99.2%
cell viability (HepG2 [4]; 100 nM): 98.4%
cell viability (HepG2 [4]; 1000 nM): 88.3%
cell viability (HepG2 [4]; 10000 nM): 94.7%
drug sensitivity score (U2OS [6]): 0
drug sensitivity score (Caco-2 [7]): 4.1
drug sensitivity score (HepG2 [8]): 0
relative viability EC50 (U2OS [10]): > 10 µM
relative viability EC50 (Caco-2 [11]): > 10 µM
relative viability EC50 (HepG2 [12]): > 10 µM

CN(C)CCN1C(=O)c2cccc3cc(N)cc(c23)C1=O [amonafide]
cell viability (Calu-3 [1]; 1 nM): 94.8%
cell viability (Calu-3 [1]; 10 nM): 96.2%
cell viability (Calu-3 [1]; 100 nM): 99.3%
cell viability (Calu-3 [1]; 1000 nM): 104%
cell viability (Calu-3 [1]; 10000 nM): 65.1%
cell viability (Vero E6 [13]; 1 nM): 97.8%
cell viability (Vero E6 [13]; 10 nM): 93.3%
cell viability (Vero E6 [13]; 100 nM): 95.9%
cell viability (Vero E6 [13]; 1000 nM): 94.1%
cell viability (Vero E6 [13]; 10000 nM): 54.8%
cell viability (U2OS [2]; 1 nM): 101%
cell viability (U2OS [2]; 10 nM): 92.7%
cell viability (U2OS [2]; 100 nM): 95%
cell viability (U2OS [2]; 1000 nM): 100%
cell viability (U2OS [2]; 10000 nM): 64.6%
cell viability (Caco-2 [3]; 1 nM): 99.9%
cell viability (Caco-2 [3]; 10 nM): 96.1%
cell viability (Caco-2 [3]; 100 nM): 97.9%
cell viability (Caco-2 [3]; 1000 nM): 108%
cell viability (Caco-2 [3]; 10000 nM): 69.7%
cell viability (HepG2 [4]; 1 nM): 92.9%
cell viability (HepG2 [4]; 10 nM): 108%
cell viability (HepG2 [4]; 100 nM): 113%
cell viability (HepG2 [4]; 1000 nM): 93.6%
cell viability (HepG2 [4]; 10000 nM): 23.9%
drug sensitivity score (Calu-3 [5]): 1.4
drug sensitivity score (Vero E6 [14]): 3.3
drug sensitivity score (U2OS [6]): 1.7
drug sensitivity score (Caco-2 [7]): 1
drug sensitivity score (HepG2 [8]): 5.2
relative viability EC50 (HepG2 [12]): 2.48 µM
